Measured values published in US11147805B2, “Cannabinoid receptor agonists and serine hydrolase enzyme inhibitor based anxiolytic therapeutic product” (Medipure Pharmaceuticals Inc., priority 2019, dated 2021).

Tests used:
human subjects = human subjects submitted to SPST; cited from earlier work
healthy volunteers = conditions: chronic administration, even large acute doses of 700 mg/day; cited from earlier work
Swiss albino mice [1] = experiment: Dose-response study: locomotor activity in the open field; type: in vivo; conditions: 7 days repeated, tested 8th day, tracked 60 min, vs vehicle
Experimental: The effect of CBD, KML29, and JZL184 on locomotor activity in the open field experiment was evaluated using Swiss albino mice.
A total of 88 male Swiss albino mice (˜30-45 g; 7-9 weeks old) were selected and body weights were recorded. Animals were administered respective treatments (n=8) as per the group allocation repeatedly for 7 days. On the day of testing (8th day), animals were brought to the laboratory 1 h prior to acclimatize to the laboratory conditions. Mice were habituated to the arenas for a period of 30 min. Respective treatments were intraperitoneally administered (vehicle (10 mL/kg) or Diazepam (1 mg/kg) or CBD (1, 10 and 100 mg/kg) or KML29 (3, 10 and 30 mg/kg) or JZL184 (3, 10 and 30 mg/kg)) immediately post habituation. After treatment animals were placed in the open field and distance traveled by mice was tracked for 60 min. Data obtained was analyzed by Student's ‘t’-test or Two-way repeated measures ANOVA followed by Bonferroni's posthoc tests by using the Graph pad prism software package (Version 7.0) and a p-value below 0.05 was considered as significant.

Swiss albino mice [2] = experiment: Anxiolytic effects of formulation: locomotor activity in open field, combinations vs diazepam; type: in vivo; conditions: 1 mg/kg, i.p.; tested 8th day, tracked 60 min; vs vehicle
Experimental: The effect of CBD, KML29, and JZL184 on locomotor activity in open field was evaluated using Swiss albino mice and compared with diazepam.
A total of 48 male Swiss albino mice (˜30-45 g; 7-9 weeks old) were selected and body weights were recorded. Animals were brought to the laboratory 1 h prior to acclimatize to the laboratory conditions. The open field is a black colored arena of 51×51×51 cm enclosed by black plastic walls of same dimensions. Animals were given respective intraperitoneal treatments as per the group allocation (n=8) repeatedly for 7 days. On the day of testing (8th day), mice were habituated to the arenas for a period of 30 min. […] Data obtained was analyzed by Student's ‘t’-test or Two-way repeated measures ANOVA followed by Bonferroni's posthoc tests by using the GraphPad prism software package (Version 7.02) and p-value below 0.05 was considered as significant.
Preparation of formulations: Diazepam was dissolved with sufficient volume of 5% pharmasolve and 95% of 30% w/v captisol to get the concentration of 0.10 mg/mL and was intended for intraperitoneal administration of 1 mg/kg dose at 10 mL/kg dose volume. CBD was dissolved in a calculated volume of DMSO to get the concentration of 20 mg/mL (Stock solution). […] KML29 was dissolved in a calculated volume of DMSO to get the concentration of 50 mg/mL (Stock solution). […]

SMILES: C=C(C)[C@@H]1CCC(C)=C[C@H]1c1c(O)cc(CCCCC)cc1O [CBD, cannabidiol]
- anxiolytic effect (human subjects): anxiolytic effects
- toxicity or serious side effects (healthy volunteers): No signs of toxicity or serious side effects
- locomotion (distance traveled in open field) (Swiss albino mice [1]; 100 mg/kg, i.p.): significantly decreased the locomotion

SMILES: CN1C(=O)CN=C(c2ccccc2)c2cc(Cl)ccc21 [Diazepam, diazepam]
- locomotion (distance traveled in open field) (Swiss albino mice [1]; 1 mg/kg, i.p.): significantly decreased the locomotion
- locomotion (distance traveled in open field) (Swiss albino mice [2]): significantly decreased the locomotion

SMILES: O=C(Oc1ccc([N+](=O)[O-])cc1)N1CCC(C(O)(c2ccc3c(c2)OCO3)c2ccc3c(c2)OCO3)CC1 [JZL184, 4-nitrophenyl-4-[bis(1,3-benzodioxol-5yl)(hydroxy)methyl]piperidine-1-carboxylate]
- locomotion (distance traveled in open field) (Swiss albino mice [1]; 3, 10 and 30 mg/kg i.p.): decreased the locomotion in a dose-dependent manner but the effect did not reach statistical significance

SMILES: O=C(N1CCC(=C2c3ccc(Cl)cc3CCc3cccnc32)CC1)n1cncn1 [KML29, [4-(8-Chloro-5,6-dihydro-11H-benzo[5,6]cyclohepta[1,2-b]pyridin-11-ylidene)-1-piperidinyl](1H-1,2,4-triazol-1-yl)methanone]
- locomotion (distance traveled in open field) (Swiss albino mice [1]; 30 mg/kg, i.p.): decreased the locomotion and attained significance
